The values below are quoted from earlier work in patent US11266615B2, “Pyrimethamine-based pharmaceutical compositions and methods for fabricating thereof” (Harrow IP, LLC, priority 2018, dated 2022).

Each structure is given as a SMILES string.

For this series the following is noted: background statement.

On to `CCc1nc(N)nc(N)c1-c1ccc(Cl)cc1` [pyrimethamine, 5-(4-chlorophenyl)-6-ethyl-pyrimidine-2,4-diamine], for which the solubility in water result is “poor”.
